# “Also recorded” adds a separate entry of the source. Where two headings read alike, the source gives them in different places.
# Key:
# [1] = Plasma and brain distribution studies
# Protocol: The dosing volume for intraperitoneal administration was 5 mL/kg. Following blood collection, the animals were sacrificed, and their abdominal vena-cava were cut open and whole body were perfused from heart using 10 mL normal saline. The brain samples were collected from a set of three mice at 0.08, 0.25, 0.5, 1, 2, 4, 8 and 10 h. After isolation, the brain samples were rinsed thrice in ice cold normal saline (for 5-10 s/rinse using ˜10-20 mL normal saline in disposable petri dish for each rinse) and dried on blotting paper. The brain samples were homogenized using ice-cold phosphate buffer saline (pH=7.4). The total homogenate volume was three times the tissue weight. All homogenates were stored below −70° C. until bioanalysis. […] Non-Compartmental-Analysis tool of Phoenix WinNonlin® (Version 8.0) was used to assess the pharmacokinetic parameters.
# [2] = Plasma and liver studies after 14 days of repeated oral dose; assay type: in vivo, C57/BL6 mice; conditions: C57/BL6, mouse; for Kp at 14 days: liver/plasma, read-out: Liver to Plasma Ratio
# [3] = Solubility test (PBS, HPLC-UV); assay type: physicochemical; conditions: kinetic from dmso stock
# Protocol: Calibration standards at 1, 5, 10, 50, 100, 200 and 300 μM were prepared in DMSO from a 20 mM stock. […] The plate was covered and shook at 150 rotations per min for 90 min. At the end of 90 min, samples were filtered using MultiScreen HTS vacuum Manifold assembly and the filtrate was collected onto the acceptor plate. An aliquot (150 μL) of the filtrate from the above 96-well acceptor plate was transferred into HPLC vials and analyzed by HPLC-UV. Verapamil, ketoconazole and reserpine were used as high, medium and low soluble reference standards respectively.
# [4] = test system: Iba1+CD11b+ double positive microglia; test: Immunohistochemistry analysis on microglia and leukocytes markers in MCAO brains; assay type: in vivo, rats; conditions: 10 mg/kg, day 7, brain areas CA1, CPu, M1 and S1, vs MCAO or vehicle groups
# Protocol: The animals were anaesthetized with isoflurane (RWD Life Science), perfused and fixed with 4% PFA (Sinopharm Chemical Reagent). The brain tissues were further soaked in 4% PFA […] at 4° C. overnight and then treated with a gradient of sucrose solutions (20-30%, Sinopharm Chemical Reagent) before being embedded with OCT (Leica) and frozen at −80° C. For immunofluorescence staining, the brain slices from primary somatosensory cortex (S1), primary motor cortex (M1), field CA1 of hippocampus (CA1) and caudate putamen (striatum, CPu) were heated for 30 min and then washed with 0.01 M PBS (pH=7.2-7.4, 5 min×3). After washing, the sections were blocked with 0.3% TritonX-100 (Solarbio) in 10% sheep serum (Solarbio) at RT for 1 h. Following removal of the blocking solution, the brain sections were incubated with primary antibodies Iba1 (Proteintech, Cat.10904-1-AP) and CD11b (Thermo Fisher, Cat. MA5-17857) overnight at 4° C. Following 3 washes with 0.01 M PBS (5 min each), the sections were incubated with Backlight plus secondary antibody (Abcam, Cat. ab150113; Cat.ab150080) at RT for 2 h. After 3 washes, the nuclei were stained with 4′, 6-diamidino-2-phenylindole (DAPI, Beyotime Biotech, Cat. C1006). […] The number of Iba1^+CD11b^+ double positive microglia were analyzed by Image J V1.8.0. […]
# [5] = test system: middle cerebral artery occlusion (MCAO); test: Neurological behavioral evaluation in MCAO model (18-point system); assay type: in vivo, SD male rats; conditions: 48 h and day 7, rat MCAO, vs Edaravone
# Text: The animals were individually assessed based on the scoring method described in Table 18.
# [6] = test system: middle cerebral artery occlusion (MCAO); test: MCAO ischemia-reperfusion model, infarct volume (TTC staining); assay type: in vivo, SD male rats
# [7] = test system: panel of other molecular targets
# Protocol: The results are expressed as a percent inhibition of control specific binding [100-(measured specific binding/control specific binding*100)]. The IC50 values and Hill coefficients (nH) were determined by non-linear regression analysis of the competition curves generated with mean replicate values using Hill equation curve fitting performed with software developed at Cerep (Hill software) and validated by comparison with data generated by the commercial software SigmaPlot® 4.0.
# [8] = Plasma protein binding assay (equilibrium dialysis), mouse plasma; assay type: in vitro ADME; conditions: pH 7.4
# Protocol: (§1) Human and mouse plasma (150 μL) containing test compound (3 μM, final concentration) and sodium phosphate buffer (150 μL, 100 mM, pH 7.4) were added to the equilibrium dialysis device and equilibrated at 37° C. for 4.5 h with constant shaking. After equilibration, 10 μL of the plasma was taken out from the first half of the well and mixed with 50 μL of blank buffer, and later quenched with 200 μL of 0.05% formic acid in ACN containing 100 ng/mL of Loperamide, Phenacetin & Tolbutamide as internal standards. Similarly, 50 μL of […] was taken from the second half of the well and mixed with 10 μL of blank […] before quenching. […] All samples were centrifuged at 14,000 rpm for 5 min at 4° C. Warfarin and naltrexone were used as positive controls. Supernatant of all samples were analyzed by LC-MS/MS.
# [9] = Plasma protein binding assay (equilibrium dialysis), human plasma; assay type: in vitro ADME; conditions: pH 7.4
# Protocol: as §1
# [10] = molecular target: T1, KCa2.3 (Homo sapiens, UniProt Q9UGI6); test: Potassium channels patch-clamp (QPatch), KCa2.3; assay type: cell-based
# T1 construct: expressed in transfected cells; host or cells: COS7
# Protocol: The effects of Group 4 compounds on related potassium channels were evaluated by patch-clamp using a QPatch HTX automated electrophysiology platform (Sophion, Denmark). The giga-seal and whole-cell requirements for the automated electrophysiology were the following: minimum seal resistance=0.1 GO, holding potential=−80 mV, holding pressure=−20 mbar; and positioning pressure=−70 mbar.
# [11] = male, C57BL/6, mouse, brain, ip, 50 mg/kg
# [12] = male, C57BL/6, mouse, plasma, ip, 50 mg/kg
# T1 sequence (Q9UGI6 whole entry): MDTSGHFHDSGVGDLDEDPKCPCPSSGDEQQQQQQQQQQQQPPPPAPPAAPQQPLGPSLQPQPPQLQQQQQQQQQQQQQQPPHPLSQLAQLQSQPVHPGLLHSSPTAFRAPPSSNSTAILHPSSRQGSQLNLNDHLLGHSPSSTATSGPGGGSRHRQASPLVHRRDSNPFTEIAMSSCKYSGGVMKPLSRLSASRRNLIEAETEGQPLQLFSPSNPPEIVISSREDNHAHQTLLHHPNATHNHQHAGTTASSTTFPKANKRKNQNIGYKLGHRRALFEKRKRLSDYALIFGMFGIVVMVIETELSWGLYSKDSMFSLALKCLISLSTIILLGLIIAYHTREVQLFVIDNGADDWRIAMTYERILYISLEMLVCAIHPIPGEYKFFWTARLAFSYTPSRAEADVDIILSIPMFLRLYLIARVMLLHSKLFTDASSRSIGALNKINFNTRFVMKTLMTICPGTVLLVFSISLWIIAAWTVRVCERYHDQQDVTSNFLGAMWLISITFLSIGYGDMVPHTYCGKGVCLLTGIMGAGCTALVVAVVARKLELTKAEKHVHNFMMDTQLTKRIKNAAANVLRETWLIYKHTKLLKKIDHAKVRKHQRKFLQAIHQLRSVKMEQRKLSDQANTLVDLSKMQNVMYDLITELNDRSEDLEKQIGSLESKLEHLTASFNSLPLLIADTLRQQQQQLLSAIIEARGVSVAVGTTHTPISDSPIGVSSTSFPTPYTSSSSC
smiles,measurement,setting,value
"COC(=O)C1=CNC=C(C(=O)OC)C1c1ccc(F)c(C(F)(F)F)c1 [Compound 103, Dimethyl 4-(4-fluoro-3-(trifluoromethyl)phenyl)-1,4-dihydropyridine-3,5-dicarboxylate]",AUClast,"[1]; Brain, IP 50 mg/kg, mice",88658.12 ng·h/g
same,Cmax,[1]; [11],26800 ng/g
same,MRT last,[1]; [11],2.09 h
same,Tmax,[1]; [11],0.25 h
same,half-life,[1]; [11],1.06 h
same,AUC(0-t),[1]; [12],20000 ng·h/mL
same,Cmax,[1]; [12],8540 ng/mL
same,MRT last,[1]; [12],2.02 h
same,Tmax,[1]; [12],0.25 h
same,half-life,[1]; [12],1.63 h
same,Kp at 14 days,"[2]; 25 mg/kg BID oral 14 days, Female mice",85.6
same,Kp at 14 days,"[2]; 25 mg/kg BID oral 14 days, Male mice",36
same,Kp at 14 days,"[2]; 50 mg/kg BID oral 14 days, Female mice",31.9
same,Kp at 14 days,"[2]; 50 mg/kg BID oral 14 days, Male mice",19.6
same,concentration at 14 days,"[2]; liver, 25 mg/kg BID oral 14 days, Female mice, read-out: Average Concentration Liver",8420 ng/g
same,concentration at 14 days,"[2]; liver, 25 mg/kg BID oral 14 days, Male mice, read-out: Average Concentration Liver",10100 ng/g
same,concentration at 14 days,"[2]; liver, 50 mg/kg BID oral 14 days, Female mice, read-out: Average Concentration Liver",12100 ng/g
same,concentration at 14 days,"[2]; liver, 50 mg/kg BID oral 14 days, Male mice, read-out: Average Concentration Liver",17500 ng/g
same,concentration at 14 days,"[2]; plasma, 25 mg/kg BID oral 14 days, Female mice, read-out: Average Concentration Plasma",100 ng/mL
same,concentration at 14 days,"[2]; plasma, 25 mg/kg BID oral 14 days, Male mice, read-out: Average Concentration Plasma",297 ng/mL
same,concentration at 14 days,"[2]; plasma, 50 mg/kg BID oral 14 days, Female mice, read-out: Average Concentration Plasma",401 ng/mL
same,concentration at 14 days,"[2]; plasma, 50 mg/kg BID oral 14 days, Male mice, read-out: Average Concentration Plasma",929 ng/mL
same,solubility at 90 min,"[3]; pH 1.5, aqueous buffer, PBS pH 1.5",54.6 µM
same,solubility at 90 min,"[3]; pH 5, aqueous buffer, PBS pH 5.0",58.1 µM
same,solubility at 90 min,"[3]; pH 7.4, aqueous buffer, PBS pH 7.4",≤ 87.4 µM
same,number of Iba1+CD11b+ double positive activated microglia,[4],significantly reduced; also recorded: effectively reduced
same,neurological behavioral scores,[5],improves neurological behavior scores more effectively than Edaravone; also recorded: improved neurological behavioral scores
same,reduction of infarct volume,"[6]; 10 mg/kg intraperitoneal twice daily, 7 days, rat MCAO",~50%
same,infarct volume,"[6]; rat MCAO 60 min, 7 days reperfusion, vs vehicle and Edaravone 5 mg/kg",more effective than Edaravone; also recorded: effectively reduced infarct volume
same,selectivity for KCa3.1 over other channels and a panel of ~100 molecular targets,[7],> 1000 fold
COC(=O)C1=C(C)NC(C)=C(C(=O)OC)C1c1ccc(F)c(C(F)(F)F)c1 [Compound 101],"fraction unbound at 4.5 h, 3 μM",[8],0.0088
same,"fraction unbound at 4.5 h, 3 μM",[9],0.0073
same,IC50,[10],8 µM
